Experimental data taken from patent EP1536235A2, “Method for detecting environmental pollution using 14-3-3 proteins as biomarkers” (MÜLLER, Werner E. G., priority 1998, dated 1999).

Legend:
14-3-3 Protein = test: ELISA quantification of 14-3-3 protein in liver after i.p. injection; conditions: liver after 5 days, Kontrolle 0,12
Method: Vorgegangen wurde hierbei nach den Instruktionen des Herstellers. Überschüssige Maleimidgruppen auf den Platten wurden durch einstündige Inkubation der Platten mit einer Cysteinlösung (10 µg/ml) blockiert.
Die Durchführung erfolgt in folgenden Schritten: • Variante 1 • 1a. Inkubation der Streptavidin-beschichteten Mikrotiterplatten mit dem Biotingekoppelten Peptid. • 2a. Zugabe von 100 µl Extrakt aus den untersuchten Tiergeweben in die Wells nach Bindung des Peptids über Biotin und Streptavidin. Oder: • 1a. Inkubation der Extrakte aus den untersuchten Tiergeweben mit dem Biotingekoppelten Peptid. • 2a. Zugabe von 100 µl der Inkubationsmischungen nach Bindung des Biotin-Peptids an 14-3-3 in die Wells. • 3. Waschen. • 4. Quantifizierung der Peptid-14-3-3 Komplexe über markierte Antikörper. Als Markierung kann zum Beispiel die alkalische Phosphatase verwendet werden; als Substrat zum Nachweis dient dann 5-Brom-4-Chlor-3-Indolylphosphat/Nitroblau-Tetrazolium. • 5. Detektion mittels eines ELISA-Platten-Readers. • Variante 2 • 1. Zugabe von 100 µl Extrakt in die Wells der Mikrotiterplatten mit dem gekoppelten Peptid und Inkubation. • 2. Waschen. • 3. Quantifizierung der Peptid-14-3-3 Komplexe über markierte Antikörper (siehe Variante 1). • 4. Detektion mittels eines ELISA-Platten-Readers.
Die in Tabelle 1 angegebenen Mengen an PCB 77, PCB 118 und PCB 153 wurden nach Auflösung in Kornöl in Klieschen (Limanda limanda) injiziert. […] Nach den angegebenen Zeiträumen wurde den Tieren die Leber entnommen und sofort eingefroren. Die Bestimmung des Gehalts an 14-3-3 in den Lebern erfolgte nach Homogenisation durch Mörsern der gefrorenen Gewebeproben in dem dreifachen Volumen an Phosphat-Puffer mit 1 mM EDTA und 1 mM Phenylmethylsulfonylfluorid.

14-3-3 [1] = test: Northern blotting of 14-3-3 mRNA after exposure of the sponge; format: in vivo, G. cydonium; conditions: PCB 118 2 µg/g, 17 beta-Östradiol 20 ng/g, alone or in combination; 17 beta-Östradiol = 100% reference value; incubation 3 or 6 days; not detectable without agents
Excerpt: (§1) Für eine Quantifizierung der mRNA für 14-3-3 mittels Northern-Blotting Verfahren werden Gensonden hergestellt, die von den konservierten Anfangsbereichen [aa45-aa57] bis zu den konservierten Endbereichen [aa214-aa234] des 14-3-3 Proteins reichen (ABB. 2). Als Methodik wird die PCR-Klonierung eingesetzt. Die erhaltenen APPROX 500 bp langen Sonden eignen sich erfahrungsgemäß gut für Northern-Blotting-Untersuchungen.
(§2) Die quantitative Auswertung der Signale kann zum Beispiel mit Hilfe des Chemilumineszenz-Verfahrens (Stanley und Kricka, Bioluminescence and chemiluminescence: current status. John Wiley & Sons, New York, 1990) in Verbindung mit einem Phospholmager (z. B. GS-525 Molecular Imager der Firma Bio-Rad) erfolgen; Dinatrium 2-Chlor-5-(4-methoxyspiro 1,2-dioxetane-3,2'-(5'-chlor)-tricyclo[3.3.1.13,7]decan-4-yl)phenyl-phosphat (CDP) wird hierfür als Substrat angewandt.
Durchfiihrung: • (a) Exposition von G. cydonium gegenüber PCB 118: 1 ml PCB 118 (0.1 mg/ml in Kornöl) wurde in […] Schwammgewebe injiziert. Die Proben wurden in Seewasser für bis zu 6 Tage in 20 1 Aquarien bei 17°C unter kontinuierlicher Belüftung inkubiert; das Wasser wurde einmal am Tag 2 gewechselt. Aliquote Teile des Gewebes (ungefähr je 200 mg) wurden zum Zeitpunkt Null oder nach einer Inkubationszeit von 0.5, 1, 3, 5 und 6 Tagen entnommen. […]

14-3-3 [2] = test: Keeping experiments with PCB 118: 14-3-3 expression by Northern and Western blotting; format: in vivo, Geodia cydonium; conditions: 2 µg PCB 118/g wet weight, 0,5 to 6 days; Northern (mRNA) and Western blotting (protein)
Excerpt: as §1, §2
Der Nachweis der Expression von 14-3-3 auf Protein-Ebene erfolgt mittels Antikörper. Entweder können kommerzielle (z. B. von der Firma Calbiochem/Oncogene) oder gegen das rekombinante Invertebraten-Protein 14-3-3 aus Geodia cydonium gezogene Antikörper eingesetzt werden. Zur Quantifizierung der 14-3-3 Proteine werden Western-Blots mit Extrakten des Bioindikators hergestellt. Die Signale können wieder unter Anwendung des Chemilumineszenz-Verfahrens quantifiziert werden. Die Gewebeextrakte können z. […]

[3] = i.p. 0.03 mg PCB pro kg Limanda limanda

SMILES	14-3-3 Protein (OD-Einheit) (14-3-3 Protein; [3])	Niveau der mRNA von 14-3-3 (14-3-3 [1])	also measured
Clc1cc(Cl)c(-c2cc(Cl)c(Cl)cc2Cl)cc1Cl [PCB153, PCB 153]	0,81 OD-Einheit		
Clc1ccc(-c2ccc(Cl)c(Cl)c2)cc1Cl [PCB77, PCB 77]	0,97 OD-Einheit		
[Cd] [Cadmium]			14-3-3 Protein (OD-Einheit) (14-3-3 Protein; Cadmium 0,01 mg/kg i.p.): 0,30 OD-Einheit; 14-3-3 Protein (OD-Einheit) (14-3-3 Protein; Cadmium 0,1 mg/kg i.p.): 0,98 OD-Einheit; 14-3-3 Protein (OD-Einheit) (14-3-3 Protein; Cadmium 0,03 mg/kg i.p.): 0,75 OD-Einheit
C[C@]12CC[C@@H]3c4ccc(O)cc4CC[C@H]3[C@@H]1CC[C@@H]2O [17 beta-Östradiol]		100%	
Clc1ccc(-c2cc(Cl)c(Cl)cc2Cl)cc1Cl [PCB 118]	0,74 OD-Einheit	30%	Expression des 14-3-3-Gens (14-3-3 [2]): von nicht nachweisbar auf sehr hohe Werte induziert
